Measurements from patent US7309491B2, “Heat shock protein-based vaccines and immunotherapies” (priority 2003, dated 2007).
pKd: −log10 of the molar value. “And” between values parts separate entries of the source, which are not always exact repeats. Equal values may be shown once. Read-outs that look alike come from different tables or passages of the source.

Assays:
[1] = test system: CD8+ T cells; format: in vivo, B6 mice
[2] = test system: SIINFEKL-pulsed target cells; set-up: species or system mice; conditions: mouse, in vivo
[3] = test system: B3Z cells; experiment: in-vitro antigen presentation assay (IL-2 produced by B3Z cells); format: cell-based
Description: The in-vitro antigen presentation assay described above was utilized further in order to evaluate the formulations of the invention.

[4] = target: recombinant human or murine heat shock protein 70 (hsp70); experiment: Scatchard analysis of labeled reference hybrid antigen binding to hsp70; conditions: 39% PBS, 20 mM THAM pH 8, 37 mM NaCl, 5 mM MgCl2, 1 mM ADP
[5] = target: recombinant human or murine heat shock protein 70 (hsp70); experiment: hsp70 binding inhibition assay (Hill plots) relative to labeled reference hybrid antigen; conditions: read-out: Kd for hsp70 binding, antigenic domains alone
[6] = test system: T cells of HHD II mice bearing human HLA-A2; conditions: mouse, in vivo
[7] = test system: modified to express ovalbumin (E.G7); set-up: species or system B6 mice; conditions: mouse, in vivo
[8] = Ex. 17 prime-boost, doses as E100

## NLLRLTGWFRSIINFEKL
[1]; mouse, in vivo
  Number of Spots per 300,000 cells: Medium: 0.67 ± 0.58
  Number of Spots per 300,000 cells: SIINFEKL (SEQ ID NO:868): 12 ± 2
  Number of Spots per 300,000 cells: Unpulsed Splenocytes: 0.67 ± 0.58
  Number of Spots per 400,000 cells: Medium control: 1.0 ± 1.7 spots per 400,000 cells
  Number of Spots per 400,000 cells: Unpulsed control: 0.0 ± 0.0 spots per 400,000 cells
  Number of spots per 400,000 cells: VSV control: 0.67 ± 0.58 spots per 400,000 cells
[1]; mouse, in vivo, sc
  Number of spots per 400,000 cells: SIINFEKL (SEQ ID NO:868): 31 ± 5.7 spots per 400,000 cells

## FFRKSIINFEKLFFRKRGYVYQGL [reference compound]
[1]; mouse, in vivo
  Number of Spots per 300,000 cells: Medium control: 1.7 ± 0.4
  Number of Spots per 300,000 cells: RGYVYQGL (SEQ ID NO:879): 31 ± 5.5
  Number of Spots per 300,000 cells: SIINFEKL (SEQ ID NO:868): 8.3 ± 1.1

## NLLRLTGWRKSIINFEKL
[1]; mouse, in vivo
  Number of Spots per 400,000 cells: Con A positive control: 842 ± 73 spots per 400,000 cells
  Number of Spots per 400,000 cells: Medium control: 1.0 ± 1.0 spots per 400,000 cells
  Number of Spots per 400,000 cells: Unpulsed control: 1.0 ± 1.0 spots per 400,000 cells
  Number of spots per 400,000 cells: SIINFEKL (SEQ ID NO:868): 24 ± 1 spots per 400,000 cells
  Number of spots per 400,000 cells: VSV control: 5.0 ± 3.0 spots per 400,000 cells
[2]
  CTL % killing at 200:1 E/T: 24%

## NLLRLTGWFFRKFAPGNYPAL (SEQ ID NO:892) (Hybrid antigen)
[1]; mouse, in vivo
  Number of Spots per 300,000 cells, FAPGNYPAL (SEQ ID NO:906): 4.3 ± 3.2 Spots per 300,000 cells
  Number of Spots per 300,000 cells, IAYFYPEL (SEQ ID NO:904): 0.3 ± 0.6 Spots per 300,000 cells
  Number of Spots per 300,000 cells, Medium: 0 ± 0 Spots per 300,000 cells

## SIINFEKL [reference compound]
[1]; Ex. 8 (200-17), B6 mice, no added hsp70, 10 μg SIINFEKL or 0.5 μg […]
  Number of spots per 400,000 cells: SIINFEKL (SEQ ID NO:868): 2.33 ± 0.41 spots per 400,000 cells
[1]; Ex. 8 (200-17), doses as E40
  Number of Spots per 400,000 cells: Con A positive control: 928 ± 72 spots per 400,000 cells
  Number of Spots per 400,000 cells: Medium control: 0.33 ± 0.41 spots per 400,000 cells
  Number of Spots per 400,000 cells: Unpulsed control: 1.33 ± 0.82 spots per 400,000 cells
  Number of spots per 400,000 cells: VSV control: 1.7 ± 0.41 spots per 400,000 cells
[1]; Ex. 9 (VSV-72-02), doses as E55
  Number of spots per 400,000 cells: VSV control: 1.0 ± 1.0 spots per 400,000 cells
[1]; Ex. 17 prime-boost, 2 μg hsp70, 2 μg hsp70 with 4 μg SIINFEKL or 4 μg hybrid antigen, 2 μg hybrid antigen alone, SIINFEKL dose not given
  number of spots per 400,000 cells; immunized day 0, analyzed day 7: 3.0 ± 2.0 spots per 400,000 cells
[1]; [8]
  number of spots per 400,000 cells; immunized day 0, analyzed day 21: 0.0 ± 1.0 spots per 400,000 cells
  number of spots per 400,000 cells; immunized day 0, analyzed day 28: 1.0 ± 1.0 spots per 400,000 cells
  number of spots per 400,000 cells; immunized days 0, 7, analyzed day 21: 2.0 ± 1.0 spots per 400,000 cells
  number of spots per 400,000 cells; immunized days 0, 14, analyzed day 28: 1.0 ± 1.0 spots per 400,000 cells
[1]; mouse, in vivo
  Number of Spots per 400,000 cells: Con A positive control: 478 ± 67 spots per 400,000 cells
  Number of Spots per 400,000 cells: Medium control: 0.0 ± 0.0 spots per 400,000 cells
  Number of Spots per 400,000 cells: Unpulsed control: 0.0 ± 1.0 spots per 400,000 cells
  Number of spots per 400,000 cells: SIINFEKL (SEQ ID NO:868): 1.0 ± 1.0 spots per 400,000 cells
[2]
  CTL % killing at 200:1 E/T: 6%
[3]; Ex. 12 (200-MF-41), 0.5 ng SIINFEKL, 5 ng […], 1.4 ug hsp70
  Pg/ml IL-2 produced by B3Z cells: 2690 ± 369 pg/mL

## ALFDIESKVGSGHWDFAWPW
[4]; fluoresceinated label
  pKd: 4.97
[4]; tritiated label
  pKd: 4.65

## NLLRLTGWFFRKDAPIYTNV (SEQ ID NO:910) (Hybrid antigen)
[1]; mouse, in vivo
  Number of Spots per 300,000 cells, Medium: 0.7 ± 0.4 Spots per 300,000 cells
  Number of Spots per 300,000 cells, Response to Class I epitope when Class I and Class II hybrid antigen admixture is administered: 13 ± 3.9 Spots per 300,000 cells
  Number of Spots per 300,000 cells, Response to Class I epitope when Class I hybrid antigen administered: 2 ± 1.9 Spots per 300,000 cells
  Number of Spots per 300,000 cells, Splenocytes: 0 ± 0 Spots per 300,000 cells

## NLLRLTGWFFRKIAYFYPEL (SEQ ID NO:913) (Hybrid antigen)
[1]; mouse, in vivo
  Number of Spots per 300,000 cells, Medium: 0 ± 0 Spots per 300,000 cells
  Number of Spots per 300,000 cells, Response to Class I epitope when Class I and Class II hybrid antigen admixture is administered: 73 ± 9.8 Spots per 300,000 cells
  Number of Spots per 300,000 cells, Response to Class I epitope when Class I hybrid antigen administered: 11 ± 3 Spots per 300,000 cells
  Number of Spots per 300,000 cells, Splenocytes: 0 ± 0 Spots per 300,000 cells

## RGYVYQGL
[5]
  pKd: 4.09

## NLLRLTGWFFRKIMDQVPFSV
[6]
  Number of Spots per 400,000 cells: IMD: 27 ± 5.1 spots per 400,000 cells
  Number of Spots per 400,000 cells: Medium control: 0.0 ± 0.0 spots per 400,000 cells
  Number of Spots per 400,000 cells: Unpulsed control: 0.0 ± 0.0 spots per 400,000 cells
  Number of Spots per 400,000 cells: YMD control: 2.0 ± 2.0 spots per 400,000 cells

## NLLRLTGWFFRKRTFSFQLI (SEQ ID NO:912) (Hybrid antigen)
[1]; mouse, in vivo
  Number of Spots per 300,000 cells, Medium: 0.3 ± 0.4 Spots per 300,000 cells
  Number of Spots per 300,000 cells, Response to Class I epitope when Class I and Class II hybrid antigen admixture is administered: 43 ± 7.6 Spots per 300,000 cells
  Number of Spots per 300,000 cells, Response to Class I epitope when Class I hybrid antigen administered: 5.3 ± 1.5 Spots per 300,000 cells
  Number of Spots per 300,000 cells, Splenocytes: 0 ± 0 Spots per 300,000 cells

## NLLRLTGWFFRKSSWDFITV (SEQ ID NO:911) (Hybrid antigen)
[1]; mouse, in vivo
  Number of Spots per 300,000 cells, Medium: 0.7 ± 0.8 Spots per 300,000 cells
  Number of Spots per 300,000 cells, Response to Class I epitope when Class I and Class II hybrid antigen admixture is administered: 98 ± 5.8 Spots per 300,000 cells
  Number of Spots per 300,000 cells, Response to Class I epitope when Class I hybrid antigen administered: 18 ± 0.7 Spots per 300,000 cells
  Number of Spots per 300,000 cells, Splenocytes: 0.7 ± 0.4 Spots per 300,000 cells

## NLLRLTGWFFRKSIINFEKL
[7]
  number of mice with tumors after 31 days: Three of 10
[1]; mouse, in vivo
  Number of Spots per 4 × 10^5 CD8 T cells: Con A Positive control: 459 ± 149
  Number of Spots per 4 × 10^5 CD8 T cells: Medium control: 1.00 ± 1.00
  Number of Spots per 4 × 10^5 CD8 T cells: SIINFEKL (SEQ ID NO:868): 151 ± 20.7
  Number of Spots per 4 × 10^5 CD8 T cells: Unpulsed control: 1.67 ± 0.58
  Number of Spots per 4 × 10^5 CD8 T cells: VSV control: 0.00 ± 0.00
  Number of Spots per 300,000 CD8 T cells: Con A positive control: 688 ± 41.7
  Number of Spots per 300,000 CD8 T cells: Medium control: 0.00 ± 0.00
  Number of Spots per 300,000 CD8 T cells: SIINFEKL (SEQ ID NO:868): 211 ± 17.0
  Number of Spots per 300,000 CD8 T cells: Unpulsed control: 0.50 ± 0.71
  Number of Spots per 300,000 CD8 T cells: VSV control: 1.00 ± 0.00
  Number of Spots per 300,000 cells: Medium: 0 ± 0
  Number of Spots per 300,000 cells: Medium control: 0.67 ± 0.82
  Number of Spots per 300,000 cells: SIINFEKL (SEQ ID NO:868): 109 ± 14
  Number of Spots per 300,000 cells: Unpulsed Splenocytes: 3.0 ± 2.0
  Number of Spots per 300,000 cells: Unpulsed control: 0 ± 0
  Number of Spots per 300,000 cells: VSV control: 0.67 ± 0.82
  Number of Spots per 400,000 cells: Con A positive control: 930 ± 23 spots per 400,000 cells and 1007 ± 17 spots per 400,000 cells and 906 ± 17 spots per 400,000 cells
  Number of Spots per 400,000 cells: Medium control: 1.0 ± 1.7 spots per 400,000 cells and 2.0 ± 0.41 spots per 400,000 cells and 1.33 ± 0.41 spots per 400,000 cells
  number of spots per 400,000 cells; immunized day 0, analyzed day 7: 72 ± 5.0 spots per 400,000 cells
  number of spots per 400,000 cells; immunized day 0, analyzed day 21: 42 ± 7.0 spots per 400,000 cells
  number of spots per 400,000 cells; immunized day 0, analyzed day 28: 82 ± 11 spots per 400,000 cells
  number of spots per 400,000 cells; immunized days 0, 7, analyzed day 21: 24 ± 6.0 spots per 400,000 cells
  number of spots per 400,000 cells; immunized days 0, 14, analyzed day 28: 25 ± 9.0 spots per 400,000 cells
[1]; mouse, in vivo, sc
  Number of Spots per 300,000 cells: SIINFEKL: 11 ± 1.8
[2]
  CTL assay: % killing at 200:1 E/T: 9.91 ± 5.57%
[3]
  Pg/ml IL-2 produced by B3Z cells: 46 ± 11 pg/mL

## NLLRLTGWFFRKIAYFYPELFFRKFAPGNYPAL
[1]; mouse, in vivo
  Number of Spots per 300,000 cells: FAPGNYPAL (SEQ ID NO:891): 136 ± 6.6
  Number of Spots per 300,000 cells: IAYFYPEL (SEQ ID NO:904): 128 ± 9.2
  Number of Spots per 300,000 cells: RGYVYQGL (SEQ ID NO:879): 1.7 ± 0.8
  Number of Spots per 300,000 cells: SIINFEKL (SEQ ID NO:868): 1.7 ± 1.1
